Results reported in ChEMBL document CHEMBL1134420, “Substituent effects within the DNA binding subunit of CBI analogues of the duocarmycins and CC-1065” (Bioorg Med Chem Lett, 2001).
pIC50: −log10 of the molar value.

Test system: L1210
Experiment: Cytotoxic activity against L1210 leukemia cells
Format: functional, cell-based, Mus musculus

| SMILES | pIC50 (Mus musculus, L1210) | pIC50 (l1210) |
| --- | --- | --- |
| CCC(=O)Nc1ccc2[nH]c(C(=O)N3C[C@H]4C[C@@]45C3=CC(=O)c3ccccc35)cc2c1 | 10.52 |  |
| C#Cc1ccc2[nH]c(C(=O)N3C[C@H]4C[C@@]45C3=CC(=O)c3ccccc35)cc2c1 | 9.52 |  |
| COc1ccc2[nH]c(C(=O)N3C[C@H]4C[C@@]45C3=CC(=O)c3ccccc35)cc2c1 | 10.30 |  |
| COc1cccc2cc(C(=O)N3C[C@H]4C[C@@]45C3=CC(=O)c3ccccc35)[nH]c12 | 9.52 |  |
| CCC(=O)c1ccc2[nH]c(C(=O)N3C[C@H]4C[C@@]45C3=CC(=O)c3ccccc35)cc2c1 | 11.52 |  |
| O=C1C=C2N(C(=O)c3cc4ccccc4[nH]3)C[C@H]3C[C@@]23c2ccccc21 | 8.57 |  |
| O=C1C=C2N(C(=O)c3cc4cc(Br)ccc4[nH]3)C[C@H]3C[C@@]23c2ccccc21 | 9.30 |  |
| N#Cc1ccc2[nH]c(C(=O)N3C[C@H]4C[C@@]45C3=CC(=O)c3ccccc35)cc2c1 | 10.52 |  |
| CC(=O)N(C)c1ccc2[nH]c(C(=O)N3C[C@H]4C[C@@]45C3=CC(=O)c3ccccc35)cc2c1 | 10.52 |  |
| CC(=O)c1cccc2cc(C(=O)N3C[C@H]4C[C@@]45C3=CC(=O)c3ccccc35)[nH]c12 | 9.52 |  |
| N#Cc1cccc2cc(C(=O)N3C[C@H]4C[C@@]45C3=CC(=O)c3ccccc35)[nH]c12 | 9.52 |  |
| CC#Cc1ccc2[nH]c(C(=O)N3C[C@H]4C[C@@]45C3=CC(=O)c3ccccc35)cc2c1 | 9.00 |  |
| CCOc1ccc2[nH]c(C(=O)N3C[C@H]4C[C@@]45C3=CC(=O)c3ccccc35)cc2c1 | 11.00 |  |
| O=C1C=C2N(C(=O)c3cc4cc(OCc5ccccc5)ccc4[nH]3)C[C@H]3C[C@@]23c2ccccc21 | 10.30 |  |
| [N-]=[N+]=Nc1ccc2[nH]c(C(=O)N3C[C@H]4C[C@@]45C3=CC(=O)c3ccccc35)cc2c1 | 9.52 |  |
| O=C1C=C2N(C(=O)c3cc4cc(Cl)ccc4[nH]3)C[C@H]3C[C@@]23c2ccccc21 | 9.40 |  |

| SMILES | pIC50 (Mus musculus, L1210) | pIC50 (l1210) |
| --- | --- | --- |
| CCCC(=O)c1ccc2[nH]c(C(=O)N3C[C@H]4C[C@@]45C3=CC(=O)c3ccccc35)cc2c1 | 10.70 |  |
| CCCC(=O)Nc1ccc2[nH]c(C(=O)N3C[C@H]4C[C@@]45C3=CC(=O)c3ccccc35)cc2c1 | 10.52 |  |
| CCCCOc1ccc2[nH]c(C(=O)N3C[C@H]4C[C@@]45C3=CC(=O)c3ccccc35)cc2c1 | 10.30 |  |
| CC(=O)c1ccc2[nH]c(C(=O)N3C[C@H]4C[C@@]45C3=CC(=O)c3ccccc35)cc2c1 | 11.70 |  |
| CCCOc1ccc2[nH]c(C(=O)N3C[C@H]4C[C@@]45C3=CC(=O)c3ccccc35)cc2c1 | 10.40 |  |
| Cc1ccc2[nH]c(C(=O)N3C[C@H]4C[C@@]45C3=CC(=O)c3ccccc35)cc2c1 | 8.70 |  |
| CC(=O)Nc1ccc2[nH]c(C(=O)N3C[C@H]4C[C@@]45C3=CC(=O)c3ccccc35)cc2c1 | 10.52 |  |
| COc1cc2cc(C(=O)N3CC4CC45C3=CC(=O)c3ccccc35)[nH]c2c(OC)c1OC (single isomer, unassigned; (+)) |  | 10.52 |
| COc1cc2cc(C(=O)N3CC4CC45C3=CC(=O)c3ccccc35)[nH]c2c(OC)c1OC (stereo in doubt) |  | 8.70 |
| O=C1C=C2N(C(=O)c3cc4c(ccc5ccccc54)[nH]3)CC3CC23c2ccccc21 (stereo in doubt; 4) |  | 8.30 |
| O=C1C=C2N(C(=O)c3cc4c(ccc5ccccc54)[nH]3)CC3CC23c2ccccc21 (stereo in doubt; 5) |  | 6.52 |
| O=C1C=C2N(C(=O)c3cc4cc5ccccc5cc4[nH]3)CC3CC23c2ccccc21 (stereo in doubt; 6) |  | 9.30 |
| O=C1C=C2N(C(=O)c3cc4cc5ccccc5cc4[nH]3)CC3CC23c2ccccc21 (stereo in doubt; 7) |  | 6.40 |
| NC(=O)N1CCc2c1ccc1[nH]c(C(=O)N3CC4CC45C3=CC(=O)c3ccccc35)cc21 (stereo in doubt; (+)) |  | 11.30 |
| NC(=O)N1CCc2c1ccc1[nH]c(C(=O)N3CC4CC45C3=CC(=O)c3ccccc35)cc21 (stereo in doubt; (-)) |  | ≤ 9.42 |
